From patent US8227625B2, “4,5,6,7-tetrahydrobenzo[b]thiophene derivatives and their use as sigma receptor ligands” (Laboratorios del Dr. Esteve, S.A., priority 2006, dated 2012)

Work on O=C(O)C(=O)O.c1ccc2c(c1)COC21CCN(CCC2CCCc3sccc32)CC1 (stereo not drawn) yielded a melting point of 172 to 176 °C.
With O=C(O)C(=O)O.OC1(c2ccc(Cl)cc2)CCN(CCC2CCCc3sccc32)CC1 (stereo not drawn) the melting point was 184 to 185 °C.
O=C(O)C(=O)O.O=C1OC2(CCN(CCC3CCCc4sccc43)CC2)c2ccccc21 (stereo not drawn) showed a melting point of 186 to 189 °C.
C1=CC2(CCN(CCC3CCCc4sccc43)CC2)c2ccccc21.O=C(O)C(=O)O (stereo not drawn) gave a melting point of 198 to 199 °C.
CN(C/C=C1\CCCc2sccc21)Cc1ccccc1.O=C(O)C(=O)O [Example 4, (E)-N-benzyl-2-(6,7-dihydrobenzo[b]thien-4(5H)-ylidene)-N-methylethanamine oxalate] showed a melting point of 139 to 141 °C.
In the case of C(/CN1CCC(c2ccccc2)CC1)=C1/CCCc2sccc21.O=C(O)C(=O)O [Example 6, (E)-1-(2-(6,7-dihydrobenzo[b]thien-4(5H)-ylidene)ethyl)-4-phenylpiperidine oxalate], the melting point is reported as 160 to 163 °C.
For CN(C/C=C1\CCCc2sccc21)CCc1ccccc1.O=C(O)C(=O)O [Example 8, (E)-N-(2-(6,7-dihydrobenzo[b]thien-4(5H)-ylidene)ethyl)-N-methyl-2-phenylethanamine oxalate], the melting point was 129 to 130 °C.
Work on C(/CN1CCCCC1)=C1/CCCc2sccc21.O=C(O)C(=O)O [Example 10, (E)-1-(2-(6,7-dihydrobenzo[b]thien-4(5H)-ylidene)ethyl)piperidine oxalate] yielded a melting point of 148 to 150 °C.
With CC1CCN(C/C=C2\CCCc3sccc32)CC1.O=C(O)C(=O)O [Example 12, (E)-1-(2-(6,7-dihydrobenzo[b]thien-4(5H)-ylidene)ethyl)-4-methylpiperidine oxalate] the melting point was 139 to 141 °C.
Work on C(/CN1CCOCC1)=C1/CCCc2sccc21.O=C(O)C(=O)O [Example 14, (E)-4-(2-(6,7-dihydrobenzo[b]thien-4(5H)-ylidene)ethyl)morpholine oxalate] yielded a melting point of 171 to 174 °C.
Work on O=C(O)C(=O)O.c1ccc2c(c1)CN(CCC1CCCc3sccc31)C2 (stereo not drawn) [Example 22, 2-(2-(4,5,6,7-tetrahydrobenzo[b]thien-4-yl)ethyl)isoindoline oxalate] yielded a melting point of 203 to 205 °C.
With CN(CCC1CCCc2sccc21)Cc1ccccc1.O=C(O)C(=O)O (stereo not drawn) [Example 24, N-benzyl-N-methyl-2-(4,5,6,7-tetrahydrobenzo[b]thien-4-yl)ethanamine oxalate] the melting point was 168 to 171 °C.
With FC(F)(F)c1ccc(C2CCN(CCC3CCCc4sccc43)CC2)cc1.O=C(O)C(=O)O (stereo not drawn) [Example 26, 1-(2-(4,5,6,7-tetrahydrobenzo[b]thiophen-4-yl)ethyl)-4-(4-(trifluoromethyl)phenyl)piperidine oxalate] the melting point was 180 to 182 °C.
Cc1ccccc1C1CCN(CCC2CCCc3sccc32)CC1.O=C(O)C(=O)O (stereo not drawn) [Example 28, 1-(2-(4,5,6,7-tetrahydrobenzo[b]thiophen-4-yl)ethyl)-4-o-tolylpiperidine oxalate] showed a melting point of 188 to 190 °C.
For Fc1cccc(C2CCN(CCC3CCCc4sccc43)CC2)c1.O=C(O)C(=O)O (stereo not drawn) [Example 30, 4-(3-fluorophenyl)-1-(2-(4,5,6,7-tetrahydrobenzo[b]thiophen-4-yl)ethyl)piperidine oxalate], the melting point was 203 to 204 °C.
With O=C(O)C(=O)O.c1ccc2c(C3CCN(CCC4CCCc5sccc54)CC3)cccc2c1 (stereo not drawn) [Example 32, 4-(naphthalen-1-yl)-1-(2-(4,5,6,7-tetrahydrobenzo[b]thiophen-4-yl)ethyl)piperidine oxalate] the melting point was 197 to 198 °C.
Clc1ccc(C2CCN(CCC3CCCc4sccc43)CC2)cc1.O=C(O)C(=O)O (stereo not drawn) [Example 34, 4-(4-chlorophenyl)-1-(2-(4,5,6,7-tetrahydrobenzo[b]thiophen-4-yl)ethyl)piperidine oxalate] gave a melting point of 201 to 202 °C.
Compound COc1ccccc1C1CCN(CCC2CCCc3sccc32)CC1.O=C(O)C(=O)O (stereo not drawn) [Example 36, 4-(2-methoxyphenyl)-1-(2-(4,5,6,7-tetrahydrobenzo[b]thiophen-4-yl)ethyl)piperidine oxalate] has a melting point of 160 to 162 °C.
Clc1cccc(C2CCN(CCC3CCCc4sccc43)CC2)c1.O=C(O)C(=O)O (stereo not drawn) [Example 42, 4-(3-chlorophenyl)-1-(2-(4,5,6,7-tetrahydrobenzo[b]thiophen-4-yl)ethyl)piperidine oxalate] gave a melting point of 185 to 186 °C.
COc1cccc(C2CCN(CCC3CCCc4sccc43)CC2)c1.O=C(O)C(=O)O (stereo not drawn) [Example 44, 4-(3-methoxyphenyl)-1-(2-(4,5,6,7-tetrahydrobenzo[b]thiophen-4-yl)ethyl)piperidine oxalate] gave a melting point of 157 to 159 °C.
With Fc1ccc(C2CCN(CCC3CCCc4sccc43)CC2)cc1.O=C(O)C(=O)O (stereo not drawn) [Example 46, 4-(4-fluorophenyl)-1-(2-(4,5,6,7-tetrahydrobenzo[b]thiophen-4-yl)ethyl)piperidine oxalate] the melting point was 179 to 181 °C.
FC(F)(F)c1cc(C2CCN(CCC3CCCc4sccc43)CC2)cc(C(F)(F)F)c1.O=C(O)C(=O)O (stereo not drawn) [Example 48, 4-(3,5-bis(trifluoromethyl)phenyl)-1-(2-(4,5,6,7-tetrahydrobenzo[b]thiophen-4-yl)ethyl)piperidine oxalate] showed a melting point of 205 to 206 °C.
Compound O=C(O)C(=O)O.c1ccc2cc(C3CCN(CCC4CCCc5sccc54)CC3)ccc2c1 (stereo not drawn) [Example 50, 4-(naphthalen-2-yl)-1-(2-(4,5,6,7-tetrahydrobenzo[b]thiophen-4-yl)ethyl)piperidine oxalate] has a melting point of 203 to 205 °C.
For O=C(O)C(=O)O.c1ccc2oc(C3CCN(CCC4CCCc5sccc54)CC3)cc2c1 (stereo not drawn) [Example 52, 4-(benzofuran-2-yl)-1-(2-(4,5,6,7-tetrahydrobenzo[b]thiophen-4-yl)ethyl)piperidine oxalate], the melting point was 207 to 208 °C.
For Fc1ccccc1C1CCN(CCC2CCCc3sccc32)CC1.O=C(O)C(=O)O (stereo not drawn) [Example 54, 4-(2-fluorophenyl)-1-(2-(4,5,6,7-tetrahydrobenzo[b]thiophen-4-yl)ethyl)piperidine oxalate], the melting point was 208 to 209 °C.
For O=C(O)C(=O)O.c1ccc2c(C3CCN(CCC4CCCc5sccc54)CC3)csc2c1 (stereo not drawn) [Example 57, 4-(benzo[b]thiophen-3-yl)-1-(2-(4,5,6,7-tetrahydrobenzo[b]thiophen-4-yl)ethyl)piperidine oxalate], the melting point was 190 to 192 °C.
Work on O=C(O)C(=O)O.c1ccc2[nH]c(C3CCN(CCC4CCCc5sccc54)CC3)nc2c1 (stereo not drawn) [Example 59, 2-(1-(2-(4,5,6,7-tetrahydrobenzo[b]thiophen-4-yl)ethyl)piperidin-4-yl)-1H-benzo[d]imidazole oxalate] yielded a melting point of 223 to 225 °C.
Compound Cc1nc2ccccc2n1C1CCN(CCC2CCCc3sccc32)CC1.O=C(O)C(=O)O (stereo not drawn) [Example 61, 2-methyl-1-(1-(2-(4,5,6,7-tetrahydrobenzo[b]thiophen-4-yl)ethyl)piperidin-4-yl)-1H-benzo[d]imidazole oxalate] has a melting point of 155 to 157 °C.
Work on COc1ccc(C2CCN(CCC3CCCc4sccc43)CC2)cc1.O=C(O)C(=O)O (stereo not drawn) [Example 63, 4-(4-methoxyphenyl)-1-(2-(4,5,6,7-tetrahydrobenzo[b]thiophen-4-yl)ethyl)piperidine oxalate] yielded a melting point of 175 to 176 °C.
CN1CCC2(CCN(CCC3CCCc4sccc43)CC2)C1=O.O=C(O)C(=O)O (stereo not drawn) [Example 65, 2-Methyl-8-[2-(4,5,6,7-tetrahydrobenzo[b]thiophen-4-yl)-ethyl]-2,8-diazaspiro[4.5]decan-1-one oxalate] gave a melting point of 140 to 142 °C.
O=C(O)C(=O)O.O=C1N(c2ccc(Cl)cc2)CCC12CCN(CCC1CCCc3sccc31)CC2 (stereo not drawn) [Example 69, 2-(4-Chlorophenyl)-8-[2-(4,5,6,7-tetrahydrobenzo[b]thiophen-4-yl)-ethyl]-2,8-diazaspiro[4.5]decan-1-one oxalate] gave a melting point of 218 to 220 °C.
With O=C(O)C(=O)O.O=C1NCCC12CCN(CCC1CCCc3sccc31)CC2 (stereo not drawn) [Example 71, 8-[2-(4,5,6,7-Tetrahydrobenzo[b]thiophen-4-yl)-ethyl]-2,8-diazaspiro[4.5]decan-1-one oxalate] the melting point was 147 to 149 °C.
COc1ccc2c(c1)CN(CCC1CCCc3sccc31)CC2.O=C(O)C(=O)O (stereo not drawn) [Example 75, 7-methoxy-2-(2-(4,5,6,7-tetrahydrobenzo[b]thiophen-4-yl)ethyl)-1,2,3,4-tetrahydroisoquinoline oxalate] gave a melting point of 200 to 201 °C.
With Clc1cc(Cl)c2c(c1)CN(CCC1CCCc3sccc31)CC2.O=C(O)C(=O)O (stereo not drawn) [Example 77, 5,7-dichloro-2-(2-(4,5,6,7-tetrahydrobenzo[b]thiophen-4-yl)ethyl)-1,2,3,4-tetrahydroisoquinoline oxalate] the melting point was 182 to 184 °C.
Work on O=C(O)C(=O)O.c1ccc2c(c1)ccn2C1CCN(CCC2CCCc3sccc32)CC1 (stereo not drawn) [Example 79, 1-(1-(2-(4,5,6,7-tetrahydrobenzo[b]thiophen-4-yl)ethyl)piperidin-4-yl)-1H-indole oxalate] yielded a melting point of 162 to 164 °C.
For CC(C)(C)N1CCC2(CCN(CCC3CCCc4sccc43)CC2)C1=O.O=C(O)C(=O)O (stereo not drawn) [Example 81, 2-tert-butyl-8-[2-(4,5,6,7-tetrahydrobenzo[b]thiophen-4-yl)-ethyl]-2,8-diazaspiro[4.5]decan-1-one oxalate], the melting point was 172 to 173 °C.
Compound O=C(O)C(=O)O.O=C1N(Cc2ccccc2)CCC12CCN(CCC1CCCc3sccc31)CC2 (stereo not drawn) [Example 83, 2-benzyl-8-[2-(4,5,6,7-tetrahydrobenzo[b]thiophen-4-yl)-ethyl]-2,8-diazaspiro[4.5]decan-1-one oxalate] has a melting point of 170 to 171 °C.
COc1ccc(N2CCC3(CCN(CCC4CCCc5sccc54)CC3)C2=O)cc1.O=C(O)C(=O)O (stereo not drawn) [Example 85, 2-(4-Methoxyphenyl)-8-[2-(4,5,6,7-tetrahydrobenzo[b]thiophen-4-yl)-ethyl]-2,8diazaspiro[4.5]decan-1-one oxalate] gave a melting point of 205 to 206 °C.
In the case of O=C(O)C(=O)O.O=C1N(c2ccccc2)CCC12CCN(CCC1CCCc3sccc31)CC2 (stereo not drawn) [Example 87, 2-phenyl-8-[2-(4,5,6,7-tetrahydrobenzo[b]thiophen-4-yl)-ethyl]-2,8-diazaspiro[4.5]decan-1-one oxalate], the melting point is reported as 200 to 201 °C.
